Results: patent publication US20030119748A1 (Idun Pharmaceuticals, Inc., priority 1996, published 2003)

molecular target: T1, mICE (Mus musculus, UniProt P29452); assay: Dissociation constant Ki for irreversible inhibitors, continuous assay (Example 1B); format: biochemical; details: compounds of Formula B and Formula C, procedure of Example 1B
T1 sequence (P29452 119-402): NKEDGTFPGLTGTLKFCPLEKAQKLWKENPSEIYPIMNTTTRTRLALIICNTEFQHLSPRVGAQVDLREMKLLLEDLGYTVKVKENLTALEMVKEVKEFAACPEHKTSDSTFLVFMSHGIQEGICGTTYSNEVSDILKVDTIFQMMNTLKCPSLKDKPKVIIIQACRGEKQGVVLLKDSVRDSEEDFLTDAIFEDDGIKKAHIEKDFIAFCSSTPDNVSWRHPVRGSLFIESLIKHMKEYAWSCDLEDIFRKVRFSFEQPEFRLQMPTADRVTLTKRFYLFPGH
Source text: B. Determination of the Dissociation Constant K1 and Irreversible Rate Constant k3 for Irreversible Inhibitors
For the irreversible inhibition of a ICE/ced-3 Family Protease enzyme with a competitive irreversible inhibitor; using the model represented by the following formulas: [drawing 4]
The product formation at time t may be expressed as: [drawing 5]
where E, I, EI, and E-I denote the active enzyme, inhibitor, non-covalent enzyme-inhibitor complex and covalent enzyme-inhibitor adduct, respectively. The K1 value is the overall dissociation constant of reversible binding steps, and k3 is the irreversible rate constant. The [S] and Ks values are the substrate concentration and the dissociation constant of the substrate bound to the enzyme, respectively. [E]^T is the total enzyme concentration.
The above equations were used to determine the K1 and k3 values of a given inhibitor bound to a ICE/ced-3 family protease. Thus, a continuous assay was run for sixty minutes at various concentrations of the inhibitor and the substrate. The assay was formulated essentially the same as described in Example 1A above, except that the reaction was initiated by adding the enzyme to the substrate-inhibitor mixture. The K1 and k3 values were obtained by simulating the product AMC formation as a function of time according to Equation 1. The reference compound for this assay was Cbz-ValAlaAsp-CH2F.

Ki, < 1000 nM:
Cc1c(C(=O)NC(C(=O)NC(CC(=O)O)C(=O)COc2ccccc2C(N)=O)C(C)C)n(C)c2ccccc12 (stereo not drawn) [Example 74, N-(1,3-Dimethyl-indole-2-carbonyl)-Valinyl-3-amino-5-(2-aminocarbonyl-1-phenyl)oxy-4-oxo-pentanoic Acid]
CC(C)[C@H](NC(=O)c1cc2ccccc2n1CC(=O)O)C(=O)NC(CC(=O)O)C(=O)CF (stereo partly drawn) [Example 58, N-[(1-(Carboxymethyl)Indole-2-Carbonyl)Valinyl]-3-Amino-4-Oxo-5-Fluoropentanoic Acid]
CC(C)[C@H](NC(=O)c1cc2ccccc2n1-c1ccccc1)C(=O)NC(CC(=O)O)C(=O)CF (stereo partly drawn) [Example 55, N-[(1-Phenylindole-2-Carbonyl)Valinyl]-3-Amino-4-Oxo-5-Fluoropentanoic Acid]
